Laboratory results reported in PMC9663578, “A fluorogenic probe for predicting treatment response in non-small cell lung cancer with EGFR-activating mutations” (Nature Communications, 2022).
Several values for one entry are separate records, joined by “and”; a condition that tells them apart may be missing. Identical values can stand only once.

Assays:
[1] = test system: HCC827 cells; assay: MTT cytotoxicity assay; format: cell-based; settings: Homo sapiens, EGFR 19del, 48 h, n=3
[2] = test system: A431 cells; assay: FACS assay in cultured cells; settings: for HX103 dose-dependent signal (Supplementary Fig. 18): 20 µM = 100
Description: (§1) Briefly, the cultured cells were seeded on the petri dish and counted using Count star BioMed automated cell counter. Around 10^6 live-cells were collected and were pelleted (2000×g, 3 min), followed by washing with PBS (2x). Cells were then resuspended in PBS buffer containing 0.1% BSA (1 × 10^6 cells/mL). […] The cell suspension was resuspended in PBS and analyzed with a FACSVerse^TM flow cytometer (BD Biosciences, LSRFortessa). About 10,000 events per tube were analyzed and the mean fluorescence intensity was detected and analyzed.
(§2) For the FACS assay with EGFR antibody, around 10^6 live-cells were collected and washed with PBS (2x). The cells were fixed by 400 µL 4% paraformaldehyde for 15 min at room temperature, followed by permeabilization with 0.1% Triton X-100 for 10 min and blocking with 5% BSA for 30 min. […] The cells were then washed with 0.5% BSA/PBS (3x) and resuspended in 400 µL of 0.1% BSA/PBS. […] The resuspended cell suspension was then analyzed on a FACSVerseTM flow cytometer (BD Biosciences, LSRFortessa). Nonspecific fluorescence binding was omitted by Rabbit mAb IgG isotype control (#3900, CST, 1:100) and the corresponding mean fluorescence was subtracted from the signal measured with each primary antibody. About 10,000 events per tube were analyzed and the mean fluorescence intensity was detected and analyzed.
(§3) Subsequently, the treated cells were incubated for 30 min at 37 °C, followed by washing with PBS buffer three times. […] Finally, the co-stained cells were washed with 0.5% BSA/PBS for three times and resuspended in 400 µL of 0.1% BSA/PBS. The obtained cell suspension was ready for analysis. Nonspecific fluorescence binding was omitted by Rabbit mAb IgG isotype control (#3900, CST, 1:100) as described above.
(§4) Nonspecific fluorescence binding was omitted by Rabbit mAb IgG isotype control (#3900, CST, 1:100). […] After incubation for another 30 min at room temperature, the co-stained cells were washed with 0.5% BSA/PBS for three times and resuspended in 400 µL of 0.1% BSA/PBS. The obtained cell suspension was ready for analysis. Nonspecific fluorescence binding was omitted by Rabbit mAb IgG isotype control (#3900, CST, 1:100) as described above.
(§5) The cells were seeded on the petri dish and cultured at the normal condition with 10% FBS, and that was changed to serum-free condition for 24 h when the cells proliferated at ~80% confluence. […] Nonspecific fluorescence binding was omitted by Rabbit mAb IgG isotype control (#3900, CST, 1:100) as described above.

[3] = test system: Hela cells; assay: FACS assay in cultured cells; settings: for HX103 dose-dependent signal (Supplementary Fig. 18): 20 µM = 100
Description: as §1, §2, §3, §4, §5

[4] = molecular target: T1, EGFR wild-type (Homo sapiens, UniProt P00533); assay: Fluorescence turn-on response / titration of HX103 with recombinant EGFR;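 for Fluorescence intensity at 570 nm: 100% is HX103 fluorescence with wild-type EGFR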; format: binding; settings: for Fluorescence intensity at 570 nm / Fluorescence response of HX103 to EGFR wild-type: n=1-3; for Fluorescence intensity, Wild-type: Fig. 2c; for Fluorescence response of HX103 to EGFR wild-type: Supplementary Fig. 2f
T1 construct: Recombinant human EGFR (amino acids 668–1210, #PR7295B); purchased Thermo Fisher PR7295B
Description: (d) Fluorescence spectra change of HX103 (5 µ M) with increasing concentration of EGFR L858R
(e) Fluorescence spectra change of HX103 (5 µ M ) with
increasing concentration of EGFR 19del (0 to 6 µM) in PBS buffer. (f) Titration curve of HX103
(5 µM) with increasing concentration of EGFRs (0 to 6 µM). The apparent binding affinity (Kd)
The fluorescence titration curve was fitted on one -
site specific binding model. I and I0 represent the intensities of HX103 at 570 nm in the presence
and absence of protein. Data represent average val ues ± SD, n = 3 independent experiments per
dissolved in dimethyl sulfoxide (DMSO) to obtain stock solutions (10 mM). The prepared stock
solution was diluted in sodium phosphate buffer (PBS, 1 M, pH=7.4) to obtain the desired final
concentration solution, containing 0.1% (v/v) DMSO as a cosolvent.
and emission fluorescence spectra of the solution before/after addition o f different concentration
Data analysis：The obtained fluorescence intensity at 570 nm (Excitation wavelength was 440
nm) in each sample was normalized by using the fluorescence intensity of HX103 in the presence
of EGFR. Specifically, the fluorescence intensity of HX103 in the presence of EGFR wild-type
was set at 100% to normalized that of the remaining samples.

[5] = MTT cytotoxicity assay; format: cell-based; settings: human, HeLa cells, EGFR wild-type, n=3
[6] = molecular target: T1, EGFR wild-type; assay: Kinase inhibition assay (fluorescent mobility-shift assay); format: biochemical; set-up: Kinase activity: unit not given here; settings: EGFR WT, n=1-3
[7] = HX103 5 µM, 30 min, replicates n=1-3

T1 sequence (P00533 668-1210): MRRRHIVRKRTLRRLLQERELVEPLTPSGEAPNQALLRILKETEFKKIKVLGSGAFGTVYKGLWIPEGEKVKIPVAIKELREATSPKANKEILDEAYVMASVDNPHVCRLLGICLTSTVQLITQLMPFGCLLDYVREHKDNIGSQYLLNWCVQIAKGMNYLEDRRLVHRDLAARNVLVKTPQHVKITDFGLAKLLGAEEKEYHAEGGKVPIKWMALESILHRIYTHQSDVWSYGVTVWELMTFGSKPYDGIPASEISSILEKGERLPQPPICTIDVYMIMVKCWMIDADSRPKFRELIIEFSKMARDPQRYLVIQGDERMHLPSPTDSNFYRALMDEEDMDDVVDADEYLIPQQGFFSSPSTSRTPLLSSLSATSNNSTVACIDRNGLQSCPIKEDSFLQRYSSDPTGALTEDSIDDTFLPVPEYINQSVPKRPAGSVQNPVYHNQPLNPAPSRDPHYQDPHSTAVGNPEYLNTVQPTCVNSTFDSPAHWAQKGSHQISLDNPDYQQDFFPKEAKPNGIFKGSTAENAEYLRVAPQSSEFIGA

## COc1cc2c(Nc3ccc(F)c(Cl)c3)ncnc2cc1OCCCNc1ccc(S(=O)(=O)N(C)C)c2nonc12 [HX103]
[1]
  IC50: 9.3 µM
[2]; A431, AVE of n=3
  EGFR(+) HX103 (+) (%) AVE: 62.105%
  HX103 (+) (%) AVE: 75.74%
[2]; A431, HX103 0.37 µM
  HX103 dose-dependent signal (Supplementary Fig. 18): 15.6053 and 17.5852 and 16.5942
[2]; A431, HX103 1.1 µM
  HX103 dose-dependent signal (Supplementary Fig. 18): 27.0427 and 32.7871 and 29.9049
[2]; A431, HX103 3.3 µM
  HX103 dose-dependent signal (Supplementary Fig. 18): 44.6928 and 49.6432 and 47.158
[2]; A431, HX103 10 µM
  HX103 dose-dependent signal (Supplementary Fig. 18): 77.4475 and 86.2684 and 81.868
[2]; A431, HX103 15 µM
  HX103 dose-dependent signal (Supplementary Fig. 18): 96.5825 and 89.3875 and 92.975
[2]; A431, HX103 20 µM
  HX103 dose-dependent signal (Supplementary Fig. 18): 100
[2]; A431, HX103 alone or with Gefitinib, replicates n=1-3
  HX103 signal (Supplementary Fig. 7): 114.212 and 76.0875 and 109.7
[2]; A431, replicates n=1-3
  EGFR(+) HX103 (+) (%): 55.07% and 64.605% and 66.64%
  HX103(+) (%): 96.31% and 66.39% and 64.52%
[2]; [7]
  normalized MFI of HX103 labeling: 83.2618% and 101.288% and 92.2747%
[2]; HX103 5 µM, replicates n=1-3
  EGFR(+) HX103 (+) (%): ~ 60% and 64.605% and 66.64% and 55.07%
[3]; [7]
  normalized MFI of HX103 labeling: 54.5064% and 65.6652% and 60.0858%
[3]; HX103 5 µM, replicates n=1-3
  EGFR(+) HX103 (+) (%): 13.055% and 13.1% and 19.51%
[3]; Hela, AVE of n=3
  EGFR(+) HX103 (+) (%) AVE: 15.2217%
  HX103 (+) (%) AVE: 15.7267%
[3]; Hela, HX103 0.37 µM
  HX103 dose-dependent signal (Supplementary Fig. 18): 10.7485 and 20.011 and 16.0693
[3]; Hela, HX103 1.1 µM
  HX103 dose-dependent signal (Supplementary Fig. 18): 23.8614 and 34.4348 and 25.4882
[3]; Hela, HX103 3.3 µM
  HX103 dose-dependent signal (Supplementary Fig. 18): 36.4324 and 54.3602 and 56.4764
[3]; Hela, HX103 10 µM
  HX103 dose-dependent signal (Supplementary Fig. 18): 67.5297 and 65.6787 and 69.9637
[3]; Hela, HX103 15 µM
  HX103 dose-dependent signal (Supplementary Fig. 18): 106.382 and 89.2391 and 92.3446
[3]; Hela, HX103 20 µM
  HX103 dose-dependent signal (Supplementary Fig. 18): 100
[3]; Hela, HX103 alone or with Gefitinib, replicates n=1-3
  HX103 signal (Supplementary Fig. 7): 110.043 and 93.8574 and 96.1
[3]; Hela, replicates n=1-3
  EGFR(+) HX103 (+) (%): 19.51% and 13.055% and 13.1%
  HX103(+) (%): 15.88% and 13.1% and 18.2%
[4]; Fig. 2b, EGFR+Afa.+HX103
  Fluorescence intensity at 570 nm: 40.8352 and 40.5015 and 39.6477
[4]; Fig. 2b, EGFR+Compound 4+HX103
  Fluorescence intensity at 570 nm: 34.8404 and 34.012 and 33.2139
[4]; Fig. 2b, EGFR+Gef.+HX103
  Fluorescence intensity at 570 nm: 52.1782 and 56.1359 and 43.6715
[4]; Fig. 2b, EGFR+HX103
  Fluorescence intensity at 570 nm: 102.993 and 106.909 and 90.0974
[4]; wavelength 666 nm
  Fluorescence intensity, Wild-type: 3857.08
[4]; wavelength 669 nm
  Fluorescence intensity, Wild-type: 3668.59
[4]; wavelength 671 nm
  Fluorescence intensity, Wild-type: 3481.17
[4]; wavelength 673 nm
  Fluorescence intensity, Wild-type: 3297.98
[4]; wavelength 676 nm
  Fluorescence intensity, Wild-type: 3120.62
[4]; wavelength 678 nm
  Fluorescence intensity, Wild-type: 2950.6
[4]; wavelength 681 nm
  Fluorescence intensity, Wild-type: 2789.44
[4]; wavelength 683 nm
  Fluorescence intensity, Wild-type: 2638.8
[4]; wavelength 686 nm
  Fluorescence intensity, Wild-type: 2500.58
[4]; wavelength 688 nm
  Fluorescence intensity, Wild-type: 2376.72
[4]; wavelength 690 nm
  Fluorescence intensity, Wild-type: 2269.12
[4]; wavelength 693 nm
  Fluorescence intensity, Wild-type: 2178.16
[4]; wavelength 695 nm
  Fluorescence intensity, Wild-type: 2100.14
[4]; wavelength 698 nm
  Fluorescence intensity, Wild-type: 2030.74
[4]; wavelength 700 nm
  Fluorescence intensity, Wild-type: 1965.66
[4]; Fig. 2d, HX103 with EGFR WT
  Fluorescence intensity at 570 nm: 95.7649 and 96.5955 and 107.639
[4]; HX103 5 µM in PBS buffer (0.1% DMSO), 570 nm
  fluorescence turn-on response: high fluorescence
[4]; HX103 5 µM, EGFR 0 to 6 µM in PBS, one-site specific binding model, read-out: apparent binding affinity (Kd)
  Kd: 2.7 ± 0.4 µM
[4]; EGFR 0.1 µM
  Fluorescence response of HX103 to EGFR wild-type: 1.163 and 1.321 and 1.006
[4]; EGFR 0.5 µM
  Fluorescence response of HX103 to EGFR wild-type: 2.913 and 3.724 and 2.102
[4]; EGFR 5 µM
  Fluorescence response of HX103 to EGFR wild-type: 10.0441 and 11.0703 and 9.62
[4]; EGFR 6 µM
  Fluorescence response of HX103 to EGFR wild-type: 11.047 and 11.7068 and 10.3878
[5]
  IC50 at 48 h: > 100 µM
[6]; Log [HX103 (M)] -7
  Kinase activity: 3.448 and 5.933 and 4.591
[6]; Log [HX103 (M)] -7.5
  Kinase activity: 17.07 and 12.53 and 15.46
[6]; Log [HX103 (M)] -8
  Kinase activity: 28.39 and 28.36 and 28.22
[6]; Log [HX103 (M)] -8.5
  Kinase activity: 52.62 and 55.81 and 54.21
